US5430023A, “Tripeptide antithrombotic agents” (Eli Lilly and Company, priority 1993, dated 1995)
Several values for one entry are separate records, joined by “and”; a condition that tells them apart may be missing. Equal values may be shown once. Where a name gives a salt, the structure may show the parent alone. Square brackets hold non-standard residues; d marks the D form. Peptide text beside a SMILES is read from it. * marks the point of attachment. dPhg = N[C@@H](C(=O)O)c1ccccc1; Boc = CC(C)(C)OC(=O)*

Key:
human thrombin = biological target: T1, human thrombin (Homo sapiens, UniProt P00734); assay: Inhibition of thrombin amidase activity (chromogenic substrate), human thrombin; assay type: biochemical; conditions: human thrombin (footnote 2)
T1 construct: purchased Inzyme Research Laboratories of South Bend, Ind
Protocol: The compounds provided by the invention (formula 1) inhibit the action of thrombin in man and animals. […] The following Table 1 lists the apparent equilibrium constant (Kass) for interaction between the test compound (inhibitor) and thrombin. The data in the table were obtained in an assay in which thrombin hydrolyzes the chromogenic substrate, N-benzoyl-D-phenylalanyl-L-valyl-L-arginyl-p-nitroanilide.
The assay was carried out in 50 μl buffer (0.03M Tris, 0.15M NaCl, pH 7.4) with 25 μl of bovine thrombin solution (0.21 mg/ml of thrombostat powder in 0.06M Tris, 0.3M NaCl, pH 7.4) and 150 μl of an aqueous solution of the chromogenic substrate at a concentration of 0.25 mg/ml. Solutions of test compound (25 μl) at various concentrations were added. Rates of hydrolysis of the substrate were measured by monitoring the reactions at 405 nm for the release of p-nitroaniline. […] The bound thrombin (bound to test compound) was calculated by subtracting the amount of free thrombin observed in each assay from the known initial amount of thrombin used in the assay. The amount of free inhibitor in each assay was calculated by subtracting the number of moles of bound thrombin from the number of moles of added inhibitor (test compound). […]
(§1) Kass was calculated for a range of concentrations of compounds and the mean value is reported in units of liter per mole.

bovine thrombin [1] = biological target: T2, bovine thrombin (Bos taurus, UniProt P00735); assay: Inhibition of thrombin amidase activity (chromogenic substrate), bovine thrombin; assay type: biochemical; conditions: apparent equilibrium constant inhibitor-thrombin, mean over a range of concentrations
T2 construct: 25 μl of bovine thrombin solution (0.21 mg/ml of thrombostat powder); purchased thrombostat powder
Protocol: The data in the table were obtained in an assay in which thrombin hydrolyzes the chromogenic substrate, N-benzoyl-D-phenylalanyl-L-valyl-L-arginyl-p-nitroanilide.
The assay was carried out in 50 μl buffer (0.03M Tris, 0.15M NaCl, pH 7.4) with 25 μl of bovine thrombin solution (0.21 mg/ml of thrombostat powder in 0.06M Tris, 0.3M NaCl, pH 7.4) and 150 μl of an aqueous solution of the chromogenic substrate at a concentration of 0.25 mg/ml. Solutions of test compound (25 μl) at various concentrations were added. […] Standard curves were constructed by plotting free thrombin concentration against hydrolysis rate. […] The amount of free inhibitor in each assay was calculated by subtracting the number of moles of bound thrombin from the number of moles of added inhibitor (test compound).
as §1

[2] = test system: plasma coagulation (thromboplastin); assay: Plasma coagulation assay: prothrombin time; assay type: biochemical
Protocol: The numerical values in the table are the concentrations of the test compounds (ng/ml) required to prolong coagulation by 2-fold in the three tests. The thrombin time evaluation was carried out in plasma and separately determined in a buffer system at pH 7.5.
(§2) The data presented in Table 2 were obtained using a CoaScreener instrument from Tecan, Inc. in the assay protocols listed below.
50 μl thromboplastin (Dade)

[3] = test system: plasma coagulation (Actin, CaCl2); assay: Plasma coagulation assay: APTT (activated partial thromboplastin time); assay type: biochemical
Protocol: (§3) The anticoagulant activity of the compounds of the invention has been determined in standard tests. The following Table 2 presents the data obtained with representative compounds of the invention in tests used to determine prothrombin time, thrombin time and activated partial thromboplastin time (APTT). The numerical values in the table are the concentrations of the test compounds (ng/ml) required to prolong coagulation by 2-fold in the three tests. The thrombin time evaluation was carried out in plasma and separately determined in a buffer system at pH 7.5.
as §2

bovine thrombin [4] = biological target: T2, bovine thrombin; assay: Plasma coagulation assay: thrombin time; assay type: biochemical
Protocol: as §3, §2
50 μl bovine thrombin (2 NIH

bovine thrombin [5] = biological target: T2, bovine thrombin; assay: Thrombin time in buffer (fibrinogen instead of plasma); assay type: biochemical; conditions: Buffer (pH 7.5)
Protocol: as §3, §2
In the Thrombin Time determined in pH 7.4 buffer fibrinogen was used instead of plasma.

[6] = test system: arterial thrombosis in the carotid artery; assay: Ferric chloride induced arterial thrombosis in the carotid artery of the rat; assay type: in vivo; conditions: infusion from 15 min before to 60 min after FeCl3, NA = Not active at 4 mg/kg/h or at 7 mg/kg/h, the highest doses tested
Protocol: The antithrombotic activity of representative compounds of the invention was determined in in vivo tests carried out in the rat. The test employed induced arterial thrombosis in the carotid artery of the rat and measured the infusion dose of test compound required to maintain blood flow for fifty minutes past the time of occlusion. The test was performed as follows.
Arterial thrombosis was induced in the rat by injury of the carotid artery. Topical application of a ferric chloride solution was used to injure the vessel. Male Sprague-Dawley rats (375-450 g) were anesthetized with xylazine (20 mg/kg, s.c.) followed by ketamine HCl (100 mg/kg, s.c.). Animals were laid on a water blanket in which the circulated water was maintained at 37° C. The carotid artery was approached through a midline cervical incision. Careful blunt dissection was used to expose and isolate the vessel from the carotid sheath. A silk suture was pulled underneath the artery to lift the vessel to provide clearance to insert a thermocouple underneath it. […] Small forceps were used to dip discs (3 mm dia) of Whatman No. 1 filter paper into a FeCl3 solution (35%). The discs were cut to equal size using sharpened stainless steel tubing (3 mm i.d.) chucked in a drill press. A saturated disc was placed on each carotid artery above the thermocouple. The time between FeCl3 application and the time at which temperature decreased abruptly was recorded as time to occlusion (TTO) of the vessel. The average time required for both vessels to occlude was used to represent TTO for each animal.
Test compounds were dissolved in isotonic saline. […]
The association between vessel occlusion and the abrupt temperature decrease was established by simultaneously recording the temperature and blood flow on the same recorder. […] Baseline temperature and flow velocity (determined with a Directional Pulsed Doppler Flowmeter, Model 545-C, University of Iowa Bioengineering) were recorded before application of 35% ferric chloride. […]

Thrombin Amidase Kass × 10^6 (human thrombin)	Thrombin Amidase Kass × 10^6 (bovine thrombin [1])	Compound	Prothrombin Time: concentration required to prolong coagulation by 2fold [2] [ng/mL]	APTT: concentration required to prolong coagulation by 2fold [3] [ng/mL]	Thrombin Time: concentration required to prolong coagulation by 2fold (bovine thrombin [4]) [ng/mL]	Thrombin Time: concentration required to prolong coagulation by 2fold (bovine thrombin [5]) [ng/mL]	ED50: infusion dose required to maintain blood flow for 50 min [6] [mg/kg/h]	Thrombin Amidase Kass × 10^6 (bovine thrombin [1]; diacetate salt)
56 × 10^6 1/mole		N=C(N)NCCCC(C=O)NC(=O)C1CCCN1C(=O)C1CC2CCCCC2CN1 [D-3-(4aS, 8aS)-Piq-(L)-Pro-(L)-Arg-H]						
	52 × 10^6 1/mole	CC(=O)O.CC(=O)O.CC(C)(C)OC(=O)N[C@@H](C(=O)N1CCC[C@H]1C(=O)N[C@H](C=O)CCCNC(=N)N)c1cccc2ccccc12 [Boc-D-1-naphthylglycyl, N-Boc-D-1-naphthylglycyl-Pro-Arg-H diacetate]	1225	3100	230	105	6.4	
		CC(C)(C)OC(=O)N[C@@H](C(=O)N1CCC[C@H]1C(=O)N[C@H](C=O)CCCNC(=N)N)c1ccccc1 [Boc-D-phenylglycyl, N-(t-Butyloxycarbonyl)-D-phenylglycyl-L-Prolyl-L-Arginine aldehyde (Boc-D-Phg-Pro-Arg-H) diacetate salt] (Boc-[dPhg]-Pro-Arg-aldehyde)	667	1169	110	118	2.9	88 × 10^6 1/mole and 73 × 10^6 1/mole
214 × 10^6 1/mole		D-3 -(4aR, 8aR)-Piq-(L)-Pro-(L)-Arg-H						
